In patent US20100216802A1, “PTERIDINE DERIVATIVES AS POLO-LIKE KINASE INHIBITORS USEFUL IN THE TREATMENT OF CANCER” (CHROMA THERAPEUTICS LTD., priority 2006, published 2010) one finds IC50 data, which are given here for 22 compounds.

The target of one test is T1, PLK1 (Homo sapiens, UniProt P53350).
T1 construct: purchased Invitrogen (Paisley, UK)
As to the kind of experiment: PLK1 enzyme assay (Z'-LYTE, Invitrogen). It counts as biochemical. The method, then: The ability of compounds to inhibit PLK-1 kinase activity was measured in an assay performed by Invitrogen (Paisley, UK). The Z′-LYTE™ biochemical assay employs a fluorescence-based, coupled-enzyme format and is based on the differential sensitivity of phosphorylated and non-phosphorylated peptides to proteolytic cleavage. The peptide substrate is labelled with two fluorophores—one at each end—that make up a FRET pair. In the primary reaction, the kinase transfers the gamma-phosphate of ATP to a single serine or threonine residue in a synthetic FRET-peptide. In the secondary reaction, a site-specific protease recognizes and cleaves non-phosphorylated FRET-peptides. Phosphorylation of FRET-peptides suppresses cleavage by the Development Reagent. Cleavage disrupts FRET between the donor (i.e., coumarin) and acceptor (i.e., fluorescein) fluorophores on the FRET-peptide, whereas uncleaved, phosphorylated FRET-peptides maintain FRET. A […] method, which calculates the ratio (the Emission Ratio) of donor emission to acceptor emission after excitation of the donor fluorophore at 400 nm, is used to quantitate reaction progress.
The assay is performed at an ATP concentration at, or close to, the Km. After the 60 minute Kinase Reaction incubation at RT, 5 μL of a 1:8 dilution of Development Reagent is added. The assay plate is incubated for a further 60 minutes at RT and read on a fluorescence plate reader.
Duplicate data points are generated from a ⅓ log dilution series of a stock solution of test compound in DMSO. Nine dilutions steps are made from a top concentration of 10 μM, and a ‘no compound’ blank is included. Data is collected and analysed using XLfit software from IDBS.

For the next test, the system named is HCT 116 cell line. As to the kind of experiment: Cell inhibition assay method A (WST-1, 120 hrs). It counts as cell-based. Conditions: Homo sapiens, HCT-116, method A, read-out: Inhibitor Activity vs HCT 116 cell line (method A). As to the method:
Cell inhibition assays were carried out using either method A or method B
Cells were seeded in 96W tissue culture plates (1 well=30 mm^2) at a density of […] per well in 50 μL of the appropriate culture medium (see below). 24 hrs later […] of the compound prepared in the same medium was added as 4 fold dilutions to give final concentrations in the range 0.15 nM-2500 nM (n=6 for each concentration). The plates were then incubated at 37° C., 5% CO2 for 120 hrs. Cell proliferation was assessed using WST-1 (a metabolic indicator dye, Roche Cat no. 1 644 807) according to the manufacturers instructions. The results were calculated as percentage of vehicle response and IC50 values represent the concentration of compound that inhibited the vehicle response by 50%.
HCT-116 culture medium —Dulbeccos MEM (Sigma D6546) plus 10% heat inactivated fetal calf serum (Hyclone SH30071 Thermo Fischer Scientific) containing 2 mM Glutamine (Sigma cat no G-7513) and 50 U/ml Penicillin and Streptomycin Sulphate (Sigma Cat no P-0781).
Background: Formazan colour is commonly taken as a measure of viable cells.

Setting [1] is: ATP at or close to Km, read-out: Inhibitor Activity vs PLK1.

Where two headings read alike, the source gives them in different places.

T1 sequence (P53350 whole entry): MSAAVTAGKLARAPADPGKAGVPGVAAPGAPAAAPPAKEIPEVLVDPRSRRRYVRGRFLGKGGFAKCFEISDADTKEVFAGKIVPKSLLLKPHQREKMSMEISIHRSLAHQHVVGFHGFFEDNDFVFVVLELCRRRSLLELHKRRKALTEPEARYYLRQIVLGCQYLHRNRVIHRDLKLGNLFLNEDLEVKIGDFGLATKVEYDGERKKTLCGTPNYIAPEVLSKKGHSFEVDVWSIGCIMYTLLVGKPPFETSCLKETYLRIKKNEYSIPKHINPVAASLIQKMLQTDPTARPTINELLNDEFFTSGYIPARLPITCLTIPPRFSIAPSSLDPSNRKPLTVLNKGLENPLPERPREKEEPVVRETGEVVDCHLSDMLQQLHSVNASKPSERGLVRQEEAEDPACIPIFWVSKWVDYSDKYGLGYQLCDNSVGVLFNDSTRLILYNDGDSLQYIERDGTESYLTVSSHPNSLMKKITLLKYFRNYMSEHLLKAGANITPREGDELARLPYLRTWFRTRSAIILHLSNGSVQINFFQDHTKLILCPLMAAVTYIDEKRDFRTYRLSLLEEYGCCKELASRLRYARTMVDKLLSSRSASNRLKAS

For `CC[C@@H]1C(=O)N(C)c2cnc(Nc3ccc(C(=O)NC4CCN(CC[C@H](N)C(=O)O)CC4)cc3F)nc2N1C1CCCC1` [Example 49, (2S)-2-Amino-4-{4-[(4-{[(7R)-8-cyclopentyl-7-ethyl-5-methyl-6-oxo-5,6,7,8-tetra hydropteridin-2-yl]amino}-3-fluorobenzoyl)amino]piperidin-1-yl}butanoic acid], the IC50 on PLK1 (setting [1]) is < 100 nM. Same read-out and setting: the same measure for `CC[C@@H]1C(=O)N(C)c2cnc(Nc3ccc(C(=O)NC4CCN(CC[C@H](N)C(=O)O)CC4)cc3C)nc2N1C1CCCC1` [Example 48, (2S)-2-Amino-4-{4-[(4-{[(7R)-8-cyclopentyl-7-ethyl-5-methyl-6-oxo-5,6,7,8-tetra hydropteridin-2-yl]amino}-3-methylbenzoyl)amino]piperidin-1-yl}butanoic acid]: < 100 nM; for `CC[C@@H]1C(=O)N(C)c2cnc(Nc3ccc(C(=O)NC4CCN(CC[C@H](N)C(=O)O)C4)cc3OC)nc2N1C1CCCC1` (stereo partly drawn) [Example 44, (2S)-2-amino-4-{3-[(4-{[(7R)-8-Cyclopentyl-7-ethyl-5-methyl-6-oxo-5,6,7,8-tetrahydropteridin-2-yl]amino}-3-methoxybenzoyl)amino]pyrrolidin-1-yl}butanoic acid]: < 100 nM; for `CC[C@@H]1C(=O)N(C)c2cnc(Nc3ccc(/C=C/C[C@H](N)C(=O)O)cc3)nc2N1C1CCCC1` [Example 35, (2S,4E)-2-Amino-5-(4-{[(7R)-8-cyclopentyl-7-ethyl-5-methyl-6-oxo-5,6,7,8-tetrahydropteridin-2-yl]amino}phenyl)pent-4-enoic acid]: < 100 nM. In the case of `CC[C@@H]1C(=O)N(C)c2cnc(Nc3ccc(C(=O)NC4CCN(CC[C@H](N)C(=O)OC(C)(C)C)CC4)cc3OC)nc2N1C1CCCC1` [Example 25, t-Butyl (2S)-2-amino-4-{4-[(4-{[(7R)-8-cyclopentyl-7-ethyl-5-methyl-6-oxo-5,6,7,8-tetrahydropteridin-2-yl]amino}-3-methoxybenzoyl)amino]piperidin-1-yl}butanoate], the IC50 at PLK1 (setting [1]) and in the test with HCT 116 cell line was < 100 nM throughout. `CC[C@@H]1C(=O)N(C)c2cnc(Nc3ccc(OCC[C@H](N)C(=O)O)cc3)nc2N1C1CCCC1` [Example 36, O-(4-{[(7R)-8-Cyclopentyl-7-ethyl-5-methyl-6-oxo-5,6,7,8-tetrahydropteridin-2-yl]amino}phenyl)-L-homoserine]: at PLK1 (setting [1]), the IC50 is < 100 nM. Take `CC[C@@H]1C(=O)N(C)c2cnc(Nc3ccc(C(=O)NC4C5CN(CC[C@H](N)C(=O)O)CC54)cc3OC)nc2N1C1CCCC1` (stereo partly drawn) [Example 45, (2S)-2-Amino-4-{6-[(4-{[(7R)-8-cyclopentyl-7-ethyl-5-methyl-6-oxo-5,6,7,8-tetrahydropteridin-2-yl]amino}-3-methoxybenzoyl)amino]-3-azabicyclo[3.1.0]hex-3-yl} butanoic acid]: at PLK1 (setting [1]), the IC50 is < 100 nM. The same measure, in the same setting: the value for `CC[C@@H]1C(=O)N(C)c2cnc(Nc3ccc(C(=O)N4CCNC(C(=O)O)C4)cc3OC)nc2N1C1CCCC1` (stereo partly drawn) [Example 42, 4-(4-{[(7R)-8-Cyclopentyl-7-ethyl-5-methyl-6-oxo-5,6,7,8-tetrahydropteridin-2-yl]amino}-3-methoxybenzoyl)piperazine-2-carboxylic acid] was < 100 nM.

For `CC[C@@H]1C(=O)N(C)c2cnc(Nc3ccc(C(=O)NC4CCN(CC[C@H](N)C(=O)O)CC4)cc3OC)nc2N1C1CCCC1` [Example 53, (2S)-2-amino-4-{4-[(4-{[(7R)-8-cyclopentyl-7-ethyl-5-methyl-6-oxo-5,6,7,8-tetrahydropteridin-2-yl]amino}-3-methoxybenzoyl)amino]piperidin-1-yl}butanoic acid], the IC50 on PLK1 (setting [1]) was < 100 nM; on PLK1 (acid of the ester, read-out: Inhibition of PLK (IC50, nM) acid), 6 nM. On to `CC[C@@H]1C(=O)N(C)c2cnc(Nc3ccc(C(=O)NC4CCN(CCC[C@@H](N)C(=O)O)CC4)cc3OC)nc2N1C1CCCC1` [Example 47, 5-{4-[(4-{[(7R)-8-Cyclopentyl-7-ethyl-5-methyl-6-oxo-5,6,7,8-tetrahydropteridin-2-yl]amino}-3-methoxybenzoyl)amino]piperidin-1-yl}-D-norvaline], for which, at PLK1 (setting [1]), the IC50 is < 100 nM. On to `CC[C@@H]1C(=O)N(C)c2cnc(Nc3ccc(C(=O)Nc4ccc(C[C@H](N)C(=O)O)cc4)cc3OC)nc2N1C1CCCC1` [Example 33], for which the IC50 at PLK1 (setting [1]) is < 100 nM. Still for that read-out and setting: the same measure for `CC[C@@H]1C(=O)N(C)c2cnc(Nc3ccc(C(=O)NCc4ccc(OCC[C@H](N)C(=O)O)cc4)cc3OC)nc2N1C1CCCC1` [Example 41, O-(4-{[(4-{[(7R)-8-Cyclopentyl-7-ethyl-5-methyl-6-oxo-5,6,7,8-tetrahydropteridin-2-yl]amino}-3-methoxybenzoyl)amino]methyl}phenyl)-L-homoserine]: < 100 nM; for `CC[C@@H]1C(=O)N(C)c2cnc(Nc3ccc(C(=O)N[C@@H]4CN[C@H](C(=O)O)C4)cc3OC)nc2N1C1CCCC1` [Example 39, (4S)-4-[(4-{[(7R)-8-Cyclopentyl-7-ethyl-5-methyl-6-oxo-5,6,7,8-tetrahydropteridin-2-yl]amino}-3-methoxybenzoyl)amino]-L-proline]: < 100 nM; for `CC[C@@H]1C(=O)N(C)c2cnc(Nc3ccc(C(=O)NCCCC[C@H](N)C(=O)O)cc3OC)nc2N1C1CCCC1` [Example 40, N^6-(4-{[(7R)-8-cyclopentyl-7-ethyl-5-methyl-6-oxo-5,6,7,8-tetrahydropteridin-2-yl]amino}-3-methoxybenzoyl)lysine]: < 100 nM.

`CC[C@@H]1C(=O)N(C)c2cnc(Nc3ccc(C(=O)NC4CCN(CC[C@@H](N)C(=O)O)CC4)cc3OC)nc2N1C1CCCC1` [Example 50, (2R)-2-Amino-4-{4-[(4-{[(7R)-8-cyclopentyl-7-ethyl-5-methyl-6-oxo-5,6,7,8-tetra hydropteridin-2-yl]amino}-3-methoxybenzoyl)amino]piperidin-1-yl}butanoic acid]: the IC50 at PLK1 (setting [1]) was < 100 nM. Same read-out and setting: the value for `CC[C@@H]1C(=O)N(C)c2cnc(Nc3ccc(OCC[C@H](N)C(=O)O)cc3OC)nc2N1C1CCCC1` [Example 37, O-(4-{[(7R)-8-Cyclopentyl-7-ethyl-5-methyl-6-oxo-5,6,7,8-tetrahydropteridin-2-yl]amino}-3-methoxyphenyl)-L-homoserine] was < 100 nM; that for `CC[C@@H]1C(=O)N(C)c2cnc(Nc3ccc(C(=O)NCCN4CCNC(C(=O)O)C4)cc3OC)nc2N1C1CCCC1` (stereo partly drawn) [Example 43, 4-{2-[(4-{[(7R)-8-Cyclopentyl-7-ethyl-5-methyl-6-oxo-5,6,7,8-tetrahydropteridin-2-yl]amino}-3-methoxybenzoyl)amino]ethyl}piperazine-2-carboxylic acid] was < 100 nM.

Consider `CCC1C(=O)N(C)c2cnc(Nc3ccc(C(=O)NCCC(N)C(=O)O)cc3OC)nc2N1C1CCCC1` [Example 38, (2S)-2-Amino-4-[(4-{[(7R)-8-cyclopentyl-7-ethyl-5-methyl-6-oxo-5,6,7,8-tetrahydropteridin-2-yl]amino}-3-methoxybenzoyl)amino]butananoic acid], for which the IC50 at PLK1 (setting [1]) was < 100 nM. In the case of `CC[C@@H]1C(=O)N(C)c2cnc(Nc3ccc(C[C@H](N)C(=O)O)cc3)nc2N1C1CCCC1` [Example 34, 4-{[(7R)-8-Cyclopentyl-7-ethyl-5-methyl-6-oxo-5,6,7,8-tetrahydropteridin-2-yl]amino}-L-phenylalanine], at PLK1 (setting [1]), the IC50 was < 100 nM.

Consider `CC[C@@H]1C(=O)N(C)c2cnc(Nc3ccc(C(=O)NC4CCN(CCC[C@H](N)C(=O)O)CC4)cc3OC)nc2N1C1CCCC1` [Example 46, 5-{4-[(4-{[(7R)-8-Cyclopentyl-7-ethyl-5-methyl-6-oxo-5,6,7,8-tetrahydropteridin-2-yl]amino}-3-methoxybenzoyl)amino]piperidin-1-yl}-L-norvaline], for which the IC50 on PLK1 (setting [1]) is < 100 nM.

Turning to `CC[C@@H]1C(=O)N(C)c2cnc(Nc3ccc(C(=O)NC4CCN(CC[C@H](N)C(=O)O[C@@H]5C[C@H](C)CC[C@H]5C(C)C)CC4)cc3OC)nc2N1C1CCCC1` [Example 32], the IC50 on PLK1 (setting [1]) is < 100 nM. The same measure, in the same setting: the value for `CC[C@@H]1C(=O)N(C)c2cnc(Nc3ccc(C(=O)N4CCNC(C(=O)O)C4)cc3OC)nc2N1C1CCCC1` (stereo partly drawn) [Example 52, 4-(4-{[(7R)-8-cyclopentyl-7-ethyl-5-methyl-6-oxo-5,6,7,8-tetrahydropteridin-2-yl]amino}-3-methoxbenzoyl)piperazine-2-carboxylic acid] was < 100 nM.
